According to patent US6537527B1, “Skin lightening compositions” (Children's Hospital Medical Center, priority 1994, dated 2003):

Assay: Stability under selective acid hydrolysis in pH 5 buffer
Assay type: physicochemical
Details: pH 5 buffer solution
Method: To a stirred suspension comprising the benzyl protected intermediate (1.0 equiv.), 5% Pd/C (0.07 equiv.) and methanol is added 55% hydrazine hydrate (˜20 equiv.). The reaction mixture is slowly heated and maintained at reflux under an inert atmosphere until TLC analysis indicates complete consumption of starting material. Reaction mixture is cooled to room temperature, filtered through celite to remove catalyst and volatiles removed in-vacuo. Residue is then subjected to low pressure column chromatography with 7:3 hexane:ethyl acetate as eluent. Composition and purity of isolated white solid as determined by ^1H and ^13C NMR is consistent with the brominated compound shown.

- stability to acid hydrolysis: stable under these conditions
SMILES: Oc1ccc(O[C@H]2OCCC[C@@H]2Br)cc1 [Iii]
